Assay results: ChEMBL document CHEMBL3886457, “Ethynyl derivatives” (2016)

Target: Metabotropic glutamate receptor 5 (Homo sapiens, UniProt P41594)
Assay: Binding Assay: For binding experiments, cDNA encoding human mGlu 5a receptor was transiently transfected into EBNA cells using a procedure described by Schlaeger and Christensen [Cytotechnology 15:1-13 (1998)]. Cell membrane homogenates were stored at -80° C. until the day of assay where upon they were thawed and resuspended and polytronised in 15 mM Tris-HCl, 120 mM NaCl, 100 mM KCl, 25 mM CaCl2, 25 mM MgCl2 binding buffer at pH 7.4 to a final assay concentration of 20 ug protein/well.Saturation isotherms were determined by addition of twelve [3H]MPEP concentrations (0.04-100 nM) to these membranes (in a total volume of 200 ul) for 1 h at 4° C. Competition experiments were performed with a fixed concentration of [3H]MPEP (2 nM) and IC50 values of test compounds evaluated using 11 concentrations (0.3-10,000 nM). Incubations were performed for 1 h at 4° C.At the end of the incubation, membranes were filtered onto unifilter (96-well white microplate with bonded GF/C filter preincubated 1 h in 0.1% PEI in wash buffer, Packard BioScience, Meriden, Conn.) with a Filtermate 96 harvester (Packard BioScience) and washed 3 times with cold 50 mM Tris-HCl, pH 7.4 buffer. Nonspecific binding was measured in the presence of 10 uM MPEP. […]

Metabotropic glutamate receptor 5, sequence (P41594 whole entry): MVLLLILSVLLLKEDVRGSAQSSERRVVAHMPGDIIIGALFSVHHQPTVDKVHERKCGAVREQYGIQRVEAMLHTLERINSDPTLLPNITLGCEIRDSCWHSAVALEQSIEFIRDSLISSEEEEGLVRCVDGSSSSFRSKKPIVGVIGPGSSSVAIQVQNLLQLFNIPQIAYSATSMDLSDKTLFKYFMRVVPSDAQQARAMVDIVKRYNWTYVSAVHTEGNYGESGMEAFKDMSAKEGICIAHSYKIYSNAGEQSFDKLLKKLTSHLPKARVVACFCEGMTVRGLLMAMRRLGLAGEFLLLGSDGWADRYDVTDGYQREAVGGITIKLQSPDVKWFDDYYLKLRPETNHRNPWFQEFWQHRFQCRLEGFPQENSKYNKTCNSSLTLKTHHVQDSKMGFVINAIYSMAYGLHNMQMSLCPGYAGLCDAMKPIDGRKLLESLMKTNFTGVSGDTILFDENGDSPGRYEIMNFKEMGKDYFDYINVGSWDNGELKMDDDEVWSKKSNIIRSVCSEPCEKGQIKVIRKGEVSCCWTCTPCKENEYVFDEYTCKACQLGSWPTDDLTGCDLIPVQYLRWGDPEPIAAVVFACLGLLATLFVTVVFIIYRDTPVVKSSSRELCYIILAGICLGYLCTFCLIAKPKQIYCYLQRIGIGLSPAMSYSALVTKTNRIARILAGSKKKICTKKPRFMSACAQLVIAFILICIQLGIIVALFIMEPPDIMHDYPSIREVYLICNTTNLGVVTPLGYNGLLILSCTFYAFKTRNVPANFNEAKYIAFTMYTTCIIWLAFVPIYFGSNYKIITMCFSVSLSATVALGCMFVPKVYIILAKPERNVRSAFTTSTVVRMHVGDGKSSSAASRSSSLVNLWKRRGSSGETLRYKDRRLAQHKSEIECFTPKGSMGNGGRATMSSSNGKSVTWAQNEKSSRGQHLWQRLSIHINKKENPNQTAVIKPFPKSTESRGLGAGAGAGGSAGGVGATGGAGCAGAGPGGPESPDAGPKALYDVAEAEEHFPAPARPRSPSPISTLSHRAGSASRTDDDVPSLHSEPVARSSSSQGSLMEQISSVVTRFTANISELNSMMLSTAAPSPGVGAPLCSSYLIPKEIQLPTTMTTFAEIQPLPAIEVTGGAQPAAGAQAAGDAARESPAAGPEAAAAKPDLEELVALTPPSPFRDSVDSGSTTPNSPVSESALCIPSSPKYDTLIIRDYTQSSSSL

`O=C(c1ccc(C#Cc2cccc(Cl)c2)cn1)N1CCOCC1` showed a Ki of 19 nM.
